# PubChem BioAssay AID200 (DTP/NCI, 2004)
# Several values for one entry are separate records, joined by “and”; a condition that tells them apart may be missing. Identical values can stand only once. Inconclusive results and toxic doses are left out. Where a SMILES comes first, the peptide text is derived from it. [ ]: non-standard residue; d: D form. The star is where a group is joined. ξ: configuration not given here. Cbz = O=C(OCc1ccccc1)*; OBn = c1ccc(CO*)cc1; Bn = c1ccc(C*)cc1; ξC = NC(CS)C(=O)O
# Tested on: B6C3F1 mice, B16 melanoma ip, median survival T/C
# Assay: NCI In Vivo Anticancer Drug Screen. Data for tumor model B16 Melanoma (intraperitoneal) in B6C3F1 mice
# Settings: endpoint: median survival time, schedule: Q01DX009 (ip), higher = longer survival
# Outline: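 Tumor-bearing mice received test compound; a separate group got vehicle only. Survival was then compared, with results reported as treated over control.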
# [1] = dose: 400.0 mg/kg/injection, vehicle: saline
# [2] = dose: 0.5 mg/kg/injection, vehicle: saline
# [3] = dose: 50.0 mg/kg/injection, vehicle: Klucel (hydroxypropylcellulose) (HPC)
# [4] = dose: 100.0 mg/kg/injection, vehicle: Klucel (hydroxypropylcellulose) (HPC)
# [5] = dose: 200.0 mg/kg/injection, vehicle: Klucel (hydroxypropylcellulose) (HPC)
# [6] = dose: 400.0 mg/kg/injection, vehicle: Klucel (hydroxypropylcellulose) (HPC)
# [7] = dose: 6.0 mg/kg/injection, vehicle: saline with Tween-80
# [8] = dose: 12.5 mg/kg/injection, vehicle: saline with Tween-80
# [9] = dose: 3.12 mg/kg/injection, vehicle: Klucel (hydroxypropylcellulose) (HPC)
# [10] = dose: 6.25 mg/kg/injection, vehicle: Klucel (hydroxypropylcellulose) (HPC)
# [11] = dose: 12.5 mg/kg/injection, vehicle: Klucel (hydroxypropylcellulose) (HPC)
# [12] = dose: 25.0 mg/kg/injection, vehicle: Klucel (hydroxypropylcellulose) (HPC)
# [13] = dose: 6.25 mg/kg/injection, vehicle: saline with Tween-80
# [14] = dose: 50.0 mg/kg/injection, vehicle: saline with Tween-80
# [15] = dose: 100.0 mg/kg/injection, vehicle: saline with Tween-80
# [16] = dose: 200.0 mg/kg/injection, vehicle: saline with Tween-80
# [17] = dose: 25.0 mg/kg/injection, vehicle: saline with Tween-80
smiles,measurement,setting,value
Cc1cc(O)c(Cl)cc1Cl,T/C,"dose: 100.0 mg/kg/injection, vehicle: saline",92 % of control
same,T/C,"dose: 200.0 mg/kg/injection, vehicle: saline",87 % of control
same,T/C,[1],90 % of control
COc1cc2c(cc1O)N=C[C@@H]1CCC(O)N1C2=O (mixture of isomers),T/C,[2],100 % of control
same,T/C,"dose: 1.0 mg/kg/injection, vehicle: saline",100 % of control and 107 % of control
same,T/C,"dose: 2.0 mg/kg/injection, vehicle: saline",111 % of control and 106 % of control
same,T/C,"dose: 4.0 mg/kg/injection, vehicle: saline",110 % of control and 121 % of control
same,T/C,"dose: 8.0 mg/kg/injection, vehicle: saline",115 % of control
C=C(c1ccc(OC)c(OC)c1)c1nccc2cc(OC)c(OC)cc12,T/C,[3],103 % of control
same,T/C,[4],98 % of control
same,T/C,[5],87 % of control
same,T/C,[6],97 % of control
same,T/C,"dose: 800.0 mg/kg/injection, vehicle: Klucel (hydroxypropylcellulose) (HPC)",90 % of control
CCOC(=O)Nc1cc2c(c(N)n1)N=C(c1ccc(Cl)cc1Cl)CN2,T/C,"dose: 1.5 mg/kg/injection, vehicle: saline with Tween-80",113 % of control and 119 % of control
same,T/C,"dose: 3.0 mg/kg/injection, vehicle: saline with Tween-80",115 % of control
same,T/C,[7],115 % of control
same,T/C,[8],155 % of control
N=c1ccn2c(n1)OC1C(O)C(CO)OC12 (stereo not given),T/C,"dose: 18.75 mg/kg/injection, vehicle: saline",100 % of control
same,T/C,"dose: 37.5 mg/kg/injection, vehicle: saline",118 % of control and 104 % of control
same,T/C,"dose: 75.0 mg/kg/injection, vehicle: saline",100 % of control and 106 % of control (2×)
same,T/C,"dose: 150.0 mg/kg/injection, vehicle: saline",114 % of control and 106 % of control (2×)
same,T/C,"dose: 300.0 mg/kg/injection, vehicle: saline",112 % of control and 121 % of control and 106 % of control
O=C(Nc1ccc([N+](=O)[O-])cc1)Nc1nccs1,T/C,"dose: 12.5 mg/kg/injection, vehicle: distilled water + Tween-80",111 % of control and 120 % of control
same,T/C,"dose: 25.0 mg/kg/injection, vehicle: distilled water + Tween-80",111 % of control
same,T/C,"dose: 100.0 mg/kg/injection, vehicle: distilled water + Tween-80",105 % of control
O=C(CC(=O)C(F)(F)F)c1csc2ccccc12,T/C,[9],112 % of control
same,T/C,[10],89 % of control
same,T/C,[11],103 % of control
same,T/C,[12],113 % of control
same,T/C,[3],100 % of control
same,T/C,[4],87 % of control
COCCOC(=O)Cc1ccc(OC)c(OC)c1,T/C,"dose: 12.5 mg/kg/injection, vehicle: saline",108 % of control
same,T/C,"dose: 25.0 mg/kg/injection, vehicle: saline",98 % of control
same,T/C,"dose: 50.0 mg/kg/injection, vehicle: saline",104 % of control
same,T/C,[1],87 % of control
COC12C(COC(=O)NCCO)C3=C(C(=O)C(C)=C(N)C3=O)N1CC1NC12 (stereo not given),T/C,"dose: 3.13 mg/kg/injection, vehicle: Klucel (hydroxypropylcellulose) (HPC)",110 % of control
same,T/C,[11],205 % of control
same,T/C,[12],121 % of control
S=C1NCc2cncnc2N1,T/C,[9],108 % of control
same,T/C,[10],107 % of control
same,T/C,[11],88 % of control and 102 % of control
OC1COC(c2ccccc2)OC1C1OC(c2ccccc2)OC2COC(c3ccccc3)OC21 (stereo not given),T/C,"dose: 3.12 mg/kg/injection, vehicle: saline with Tween-80",93 % of control
same,T/C,[13],93 % of control
same,T/C,[8],91 % of control
NC(=O)NC(CC(=O)O)C(=O)O (stereo not given),T/C,[14],113 % of control
same,T/C,[15],95 % of control
same,T/C,[16],102 % of control
CN(N=O)C(N)=O,T/C,"dose: 12.0 mg/kg/injection, vehicle: saline",188 % of control
C[C@]12CC[C@H](O)CC1=CC[C@@H]1[C@@H]2CC[C@]2(C)C(=O)CC[C@@H]12,T/C,[17],100 % of control
same,T/C,[14],97 % of control
same,T/C,[15],101 % of control
same,T/C,[16],92 % of control
O=C(CNC(=O)C(CSCc1ccccc1)NC(=O)OCc1ccccc1)NCC(=O)OCc1ccccc1 (stereo not drawn) (Cbz-[ξC](Bn)-Gly-Gly-OBn),T/C,[11],92 % of control
same,T/C,[12],88 % of control
CCCCC(NC(=O)CN)C(=O)O (stereo not given),T/C,[4],103 % of control
same,T/C,[5],107 % of control
same,T/C,[6],122 % of control
COC1/C=C\C=C(/C)C(=O)NC2=CC(=O)C(NCCCl)=C(CC(C)CC(OC)C(O)C(C)/C=C(/C)C1OC(N)=O)C2=O (stereo not given),T/C,"dose: 3.0 mg/kg/injection, vehicle: DMSO",109 % of control and 103 % of control
same,T/C,"dose: 6.0 mg/kg/injection, vehicle: DMSO",112 % of control and 106 % of control
same,T/C,"dose: 12.0 mg/kg/injection, vehicle: DMSO",112 % of control and 123 % of control
same,T/C,"dose: 24.0 mg/kg/injection, vehicle: DMSO",109 % of control and 120 % of control
COc1ccc2c(NCCCCCCNc3c4ccccc4nc4cc(OC)ccc34)c3ccccc3nc2c1,T/C,"dose: 39.0 micrograms/kg/injection, vehicle: lactic acid",108 % of control
same,T/C,"dose: 78.0 micrograms/kg/injection, vehicle: lactic acid",90 % of control
NCC(=O)NC(Cc1ccc(O)cc1)C(=O)NCC(=O)O (stereo not given) (HELM PEPTIDE1{G.[O=C(C(Cc1ccc(O)cc1)N[*:1])[*:2]].G}$$$$V2.0),T/C,[3],96 % of control
same,T/C,[4],98 % of control
same,T/C,[5],106 % of control
O=C(NC(Cc1cnc[nH]1)C(=O)NC(Cc1ccc(O)cc1)C(=O)O)OCc1ccccc1 (stereo not drawn) (Cbz-His-Tyr-OH; configuration not given here),T/C,[4],102 % of control
same,T/C,[5],103 % of control
same,T/C,[6],110 % of control
CCC1=C[C@H]2CN(CCc3c([nH]c4ccccc34)[C@@](C(=O)OC)(c3cc4c(cc3OC)N(C)[C@H]3[C@@](O)(C(=O)NC)[C@H](OC(C)=O)[C@]5(CC)C=CCN6CC[C@]43[C@@H]65)C2)C1,T/C,"dose: 0.03 mg/kg/injection, vehicle: saline",117 % of control
same,T/C,"dose: 0.06 mg/kg/injection, vehicle: saline",118 % of control
same,T/C,"dose: 0.12 mg/kg/injection, vehicle: saline",170 % of control
same,T/C,"dose: 0.25 mg/kg/injection, vehicle: saline",182 % of control
same,T/C,[2],238 % of control
NC(C(=O)O)c1ccc(CBr)cc1 (stereo not given),T/C,[7],114 % of control
same,T/C,[13],111 % of control
same,T/C,[17],159 % of control
same,T/C,[14],155 % of control and 165 % of control
same,T/C,[15],150 % of control and 183 % of control
CC(=O)Nc1c2sscc-2n(C)c1=O,T/C,"dose: 0.19 mg/kg/injection, vehicle: saline",105 % of control
same,T/C,"dose: 0.39 mg/kg/injection, vehicle: saline",93 % of control
same,T/C,"dose: 0.78 mg/kg/injection, vehicle: saline",94 % of control
CCN1/C(=C/C(C)=C/c2sc3ccc4ccccc4c3[n+]2CC)Sc2ccc3ccccc3c21,T/C,"dose: 0.02 mg/kg/injection, vehicle: saline with Tween-80",95 % of control
same,T/C,"dose: 0.05 mg/kg/injection, vehicle: saline with Tween-80",106 % of control
CN(C)CCOc1ccc2c(c1)C/C(=C/c1ncc([N+](=O)[O-])n1C)C2=O,T/C,[13],100 % of control
same,T/C,[8],104 % of control
same,T/C,[17],100 % of control
same,T/C,[14],111 % of control
CNC(=O)OCc1c(COC(=O)NC)c(C)n(-c2ccc(OC)cc2)c1C,T/C,[9],112 % of control
same,T/C,[3],111 % of control
C1OCN2CSCC12 (stereo not given),T/C,[8],106 % of control
same,T/C,[17],94 % of control and 99 % of control
same,T/C,[14],92 % of control and 99 % of control
same,T/C,[15],108 % of control and 109 % of control
same,T/C,[16],109 % of control and 90 % of control
